Our source for the IC50, inhibition and Activity values is ChEMBL document CHEMBL4418495, “Entpd5 inhibitors” (2012).

Active and inactive are the calls of the source.

The target of series [1] is T1, Nucleoside diphosphate phosphatase ENTPD5 (Homo sapiens, UniProt O75356).
T1 sequence (O75356 whole entry): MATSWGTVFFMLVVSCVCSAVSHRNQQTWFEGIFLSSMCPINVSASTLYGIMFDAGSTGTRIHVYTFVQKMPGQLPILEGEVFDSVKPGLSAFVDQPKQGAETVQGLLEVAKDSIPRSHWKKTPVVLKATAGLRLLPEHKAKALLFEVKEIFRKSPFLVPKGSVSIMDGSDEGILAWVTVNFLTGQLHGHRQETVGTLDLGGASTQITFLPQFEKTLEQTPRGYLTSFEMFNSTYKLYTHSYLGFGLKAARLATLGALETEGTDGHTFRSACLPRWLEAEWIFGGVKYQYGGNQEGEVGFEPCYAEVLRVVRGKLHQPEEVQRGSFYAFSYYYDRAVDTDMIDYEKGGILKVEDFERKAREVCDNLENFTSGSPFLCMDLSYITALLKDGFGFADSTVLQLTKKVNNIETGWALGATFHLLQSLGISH
Description: Inhibition of human recombinant ENTPD5 expressed in insect cells assessed as reduction in UDP hydrolysis incubated for 1 hr in presence of UMP, GTP and ATP by Escherichia coli UMP kinase pyrH catalyzed UMP phosphorylation coupled luciferase assay.

The target of series [2] is T2, Ectonucleoside triphosphate diphosphohydrolase 5 (Mus musculus) (UniProt Q9WUZ9).
T2 sequence (whole entry): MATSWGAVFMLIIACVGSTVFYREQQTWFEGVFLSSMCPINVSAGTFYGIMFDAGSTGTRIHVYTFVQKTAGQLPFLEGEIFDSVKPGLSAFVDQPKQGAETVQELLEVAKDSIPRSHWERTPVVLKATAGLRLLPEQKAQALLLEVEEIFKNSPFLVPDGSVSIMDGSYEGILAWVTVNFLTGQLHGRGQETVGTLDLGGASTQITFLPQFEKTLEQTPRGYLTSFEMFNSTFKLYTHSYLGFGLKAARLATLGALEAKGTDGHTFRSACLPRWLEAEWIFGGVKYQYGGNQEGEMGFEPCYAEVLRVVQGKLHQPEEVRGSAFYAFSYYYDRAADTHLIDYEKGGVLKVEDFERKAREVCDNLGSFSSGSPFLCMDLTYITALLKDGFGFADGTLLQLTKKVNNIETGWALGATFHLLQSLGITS
Put plainly: Inhibition of ENTPD5 in PTEN knockout mouse MEF cells assessed as induction of ER stress by measuring increase in GRP78/BiP expression at 30 uM incubated for 24 hrs by Western blotting analysis. The format is cell-based.

In series [3] the target is T2, Ectonucleoside triphosphate diphosphohydrolase 5 (Mus musculus). Description: Inhibition of ENTPD5 in PTEN knockout mouse MEF cells assessed as induction of ER stress by measuring increase in GRP78/BiP expression incubated for 24 hrs by Western blotting analysis. The format is cell-based.
For series [4] the target is unchanged. Description: Inhibition of ENTPD5 in PTEN knockout mouse MEF cells assessed as induction of ER stress by measuring increase in EGF receptor degradation incubated for 24 hrs by Western blotting analysis. The format is cell-based.
For series [5], the system named is LNCaP. Put plainly: Antitumor activity against human LNCAP cells xenografted in mouse assessed as induction of tumor shrinkage at 1 to 100 mg/kg, ip dosed every other day and measured after 6 weeks by microscopy. Type of series: functional, organism-based.
The subject of series [6] is LNCaP. Put plainly: Antitumor activity against human LNCAP cells xenografted in mouse assessed as reduction in cells left in matrigels at 1 to 100 mg/kg, ip dosed every other day and measured after 6 weeks by hematoxylin and eosin staining based microscopy. The format is functional, organism-based.
The target in series [7] is T3, Nucleoside diphosphate phosphatase ENTPD5 (Homo sapiens) (UniProt O75356).
T3 sequence (whole entry): T1 sequence (O75356 whole entry)
Put plainly: Inhibition of human recombinant ENTPD5 expressed in insect cells assessed as reduction in UDP hydrolysis at 1 uM incubated for 1 hr in presence of UMP, GTP and ATP by Escherichia coli UMP kinase pyrH catalyzed UMP phosphorylation coupled luciferase assay.

Series [8] has as its target T3, Nucleoside diphosphate phosphatase ENTPD5 (Homo sapiens). Description: Inhibition of human recombinant ENTPD5 expressed in insect cells assessed as reduction in UDP hydrolysis up to 10 uM incubated for 1 hr in presence of UMP, GTP and ATP by Escherichia coli UMP kinase pyrH catalyzed UMP phosphorylation coupled luciferase assay.
For series [9], the target named is T4, Uridylate kinase (Escherichia coli (strain K12)) (UniProt P0A7E9).
T4 sequence (whole entry): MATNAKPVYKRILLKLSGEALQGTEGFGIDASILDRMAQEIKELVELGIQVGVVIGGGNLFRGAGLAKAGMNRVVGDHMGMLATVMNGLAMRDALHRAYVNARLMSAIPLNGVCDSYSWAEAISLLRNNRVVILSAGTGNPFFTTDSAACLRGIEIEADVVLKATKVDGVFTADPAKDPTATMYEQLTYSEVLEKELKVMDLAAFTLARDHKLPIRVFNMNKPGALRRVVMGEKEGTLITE
Description: Inhibition of recombinant Escherichia coli UMP kinase pyrH catalyzed UMP phosphorylation in presence of GTP and ATP incubated for 1 hr by luminescence based assay.

For series [10], the target named is T3, Nucleoside diphosphate phosphatase ENTPD5 (Homo sapiens). Description: Inhibition of human recombinant ENTPD5 expressed in insect cells assessed as reduction in reduction in UDP hydrolysis by measuring inorganic phosphate release incubated for 1 hr by malachite green based assay.
For a further series, the system named is MEF. Description: Toxicity in PTEN knockout mouse MEF cells assessed as reduction in cell viability at 30 uM incubated for 24 hrs. The format is cell-based.

Consider `C[C@H]1CC[C@]2(C)C(CCCC2(C)C)[C@]1(C)c1cc(O)ccc1O` (stereo not given in full), for which, in series [1], the IC50 was found to be 30 µM.
Still for that read-out and setting: in the case of `CC1(C)CCC[C@]2(C)[C@H]3Cc4cc(O)ccc4O[C@]3(C)CC[C@@H]12` it was 10 µM.
As for `COc1ccc(-n2cccc2/C=C2\C(=O)NC(=S)N(c3cccc(Br)c3)C2=O)cc1`, the inhibition result in [2], in series [7] and in [10] was “Active” in each case. Moreover, the inhibition entry in series [3], in series [4] and in series [8] was “Dose-dependent effect” throughout. The outcome in the series on LNCaP [5] and in the series on LNCaP [6] was Active. Further, the inhibition result in [9] was “inactive”.
As for `C[C@H]1CC[C@@H]2C(CCCC2(C)C)[C@]1(C)c1cc(O)ccc1O` (stereo not given in full), the IC50 in [1] is 30 µM.
As to `CCOc1ccc(N2C(=O)/C(=C/c3cccn3-c3ccc(Br)cc3)C(=O)NC2=S)c(F)c1`, the inhibition result in series [2], in series [7] and in series [10] was “Active” in each case. The inhibition result in series [3], in series [4] and in [8] was “Dose-dependent effect” in each case. Besides, the result in the series on LNCaP [5] and with LNCaP [6] was Active. Besides, the inhibition entry in [9] was “inactive”.
Consider `O=C1/C(=C/c2ccc(O)cc2O)CCC/C1=C\c1ccc(O)cc1O`, for which the inhibition entry in [2], in [7] and in series [10] was “Active” throughout. Besides, the outcome in the series with LNCaP [5] and in the series on LNCaP [6] was Active. For the same molecule, the inhibition entry in series [8] is “Dose-dependent effect”. In addition, the inhibition entry in [9] was “inactive”.
Regarding `C[C@H]1CC[C@H]2C(C)(C)CCC[C@]23Oc2ccc(O)cc2C[C@]13C` [AUREOL], in [1], the IC50 was 15 to 20 µM. Besides, the Activity result in the series with MEF is on record as “Toxic”.
Turning to `N=C1S/C(=C\c2ccc(N3CCOCC3)cc2)C(=O)N1c1ccc(Br)cc1`, the inhibition entry in series [2], in series [7] and in series [10] was “Active” throughout. Besides, the result in the series on LNCaP [5] and in the series on LNCaP [6] was Active. The inhibition result in series [8] is “Dose-dependent effect”. Besides, the inhibition entry in series [9] is “inactive”.
As to `O=C(CN1C(=O)/C(=C2\SC(N3CCOCC3)=NC2=O)c2ccccc21)Nc1cccc(Br)c1`, the inhibition entry in series [2], in series [7] and in series [10] was “Active” in each case. Moreover, the outcome with LNCaP [5] and in the series on LNCaP [6] was Active. Besides, the inhibition entry in series [8] is “Dose-dependent effect”. Also, in series [9], the inhibition entry was “inactive”.
For `O=C(Nc1ccccc1)NC(N1CCOCC1)C(Cl)(Cl)Cl` (stereo not given), the inhibition entry in [2], in series [7] and in series [10] was “Active” in each case. The result in the series with LNCaP [5] and with LNCaP [6] was Active. For the same molecule, the inhibition entry in [8] is “Dose-dependent effect”. Also, the inhibition result in [9] is “inactive”.
Regarding `S=C(Nc1ccc2nc(-c3ccco3)c(-c3ccco3)nc2c1)N1CCCC1`, the inhibition entry in series [2], in series [7] and in [10] was “Active” in each case. The result with LNCaP [5] and with LNCaP [6] was Active. The inhibition result in series [8] is “Dose-dependent effect”. Moreover, in series [9], the inhibition entry was “inactive”.
With `Cc1cc(I)cc2c1NC(c1ccc([N+](=O)[O-])cc1)C1CC=CC21` (stereo not given), the inhibition result in series [2], in [7] and in [10] was “Active” throughout. Moreover, the result in the series with LNCaP [5] and in the series on LNCaP [6] was Active. Further, in series [8], the inhibition entry is “Dose-dependent effect”. Moreover, in series [9], the inhibition entry was “inactive”.
